Experimental data as given in PubChem BioAssay (NCI).
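Step 1: Grow cells in 96-well plates. Step 2: Expose to compound for 48 hours at 5 concentrations. Step 3: Interpolate endpoints linearly; if unreached, use highest concentration. At the GI50, growth is halved. At the TGI there is no net growth.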 Residues, ends and D or L forms follow the SMILES beside them. *: point of attachment. Boc = CC(C)(C)OC(=O)*; OBn = c1ccc(CO*)cc1

Key:
Assay in all cases: growth of human tumour cells (NCI), 48 h; in the data active means GI50 below about 0.43 µM; inactive means the rest
[1] = system: ACHN renal
[2] = system: M14 melanoma
[3] = system: SR leukemia
[4] = system: MCF7 breast
[5] = system: SF-539 CNS
[6] = system: MDA-MB-435
[7] = system: SF-268 CNS
[8] = system: TK-10 renal
[9] = system: SNB-19 CNS
[10] = system: A549 NSCLC
[11] = system: BT-549 breast
[12] = system: SF-295 CNS
[13] = system: RXF 393 renal
[14] = system: MALME-3M melanoma
[15] = system: U251 CNS
[16] = system: T-47D breast
[17] = system: HCT-15 colon
[18] = system: OVCAR-4 ovarian
[19] = system: OVCAR-3 ovarian
[20] = system: SNB-75 CNS
[21] = system: NCI/ADR-RES ovarian
[22] = system: SN12C renal
[23] = system: 786-0 renal
[24] = system: SW-620 colon
[25] = system: CAKI-1 renal
[26] = system: K-562 leukemia
[27] = system: OVCAR-8 ovarian
[28] = system: DU-145 prostate
[29] = system: OVCAR-5 ovarian
[30] = system: NCI-H522 lung
[31] = system: HCT-116 colon
[32] = system: NCI-H23 lung
[33] = system: LOX IMVI melanoma
[34] = system: A498 renal
[35] = system: MDA-MB-231 breast
[36] = system: PC-3 prostate
[37] = system: KM12 colon
[38] = system: IGROV1 ovarian
[39] = system: COLO 205 colon
[40] = system: SK-MEL-5 melanoma
[41] = system: MDA-N
[42] = system: SK-OV-3 ovarian
[43] = system: HT29 colon
[44] = system: SK-MEL-28 melanoma
[45] = system: EKVX NSCLC
[46] = system: UACC-62 melanoma
[47] = system: UACC-257 melanoma
[48] = system: SK-MEL-2 melanoma
[49] = system: UO-31 renal
[50] = system: NCI-H226 lung
[51] = system: HOP-92 NSCLC
[52] = system: HL-60(TB) leukemia
[53] = system: HOP-62 NSCLC
[54] = system: HCC-2998 colon
[55] = system: CCRF-CEM leukemia
[56] = system: NCI-H460 lung
[57] = system: HS 578T breast
[58] = system: RPMI-8226 leukemia
[59] = system: MOLT-4 leukemia

CC(C)CC(NC(=O)OC(C)(C)C)C(=O)N1CCCC1C(=O)OCc1ccccc1 (stereo not drawn) (Boc-Leu-Pro-OBn; configuration not given here)
> 100 µM: TGI [1] | TGI [2] | TGI [3] | TGI [4] | TGI [5] | TGI [6] | TGI [7] | TGI [8] | TGI [9] | TGI [10] | TGI [11] | TGI [12] | TGI [13] | TGI [14] | TGI [15] | TGI [16] | TGI [17] | TGI [18] | TGI [19] | TGI [20] | TGI [21] | TGI [22] | TGI [23] | TGI [24] | TGI [25] | TGI [26] | TGI [27] | TGI [28] | TGI [29] | TGI [30] | TGI [31] | TGI [32] | TGI [33] | TGI [34] | TGI [35] | TGI [36] | TGI [37] | TGI [38] | TGI [39] | TGI [40] | TGI [41] | TGI [42] | TGI [43] | TGI [44] | TGI [45] | TGI [46] | TGI [47] | TGI [48] | TGI [49] | TGI [50] | TGI [51]

O=C(N/N=C/c1ccccc1O)c1ccccc1Nc1ccccc1C(=O)N/N=C/c1ccccc1O
3.79 µM: TGI [50]
0.865 µM: TGI [44]
> 30.7 µM: TGI [6]
11.7 µM: TGI [27]
5.44 µM: TGI [21]
8.15 µM: TGI [40]
2.28 µM: TGI [7]
6.09 µM: TGI [14]
6.35 µM: TGI [2]
> 24.2 µM: TGI [23]
> 100 µM: TGI [1] | TGI [4] | TGI [5] | TGI [8] | TGI [9] | TGI [52] | TGI [10] | TGI [11] | TGI [12] | TGI [13] | TGI [54] | TGI [15] | TGI [16] | TGI [17] | TGI [18] | TGI [55] | TGI [19] | TGI [20] | TGI [24] | TGI [25] | TGI [26] | TGI [28] | TGI [29] | TGI [30] | TGI [32] | TGI [33] | TGI [34] | TGI [35] | TGI [36] | TGI [37] | TGI [38] | TGI [39] | TGI [41] | TGI [42] | TGI [45] | TGI [46] | TGI [47] | TGI [48] | TGI [56] | TGI [49]
3.5 µM: TGI [31]
4.99 µM: TGI [43]
> 20.7 µM: TGI [53]

CCc1cc2ncc(CN3CCN(c4ccc(C(=O)NC)nc4)CC3)cc2[nH]c1=O
inactive: GI50 [1] 78.3 µM | GI50 [57] 64 µM | GI50 [2] 92.4 µM | GI50 [3] 11.5 µM | GI50 [4] 29.4 µM | GI50 [5] 66.9 µM | GI50 [6] 85.8 µM | GI50 [7] > 100 µM | GI50 [8] 43.1 µM | GI50 [9] 99.7 µM | GI50 [52] 32.1 µM | GI50 [10] > 100 µM | GI50 [11] 25.9 µM | GI50 [53] 55.7 µM | GI50 [12] 56.7 µM | GI50 [13] 17 µM | GI50 [14] > 100 µM | GI50 [54] 87.9 µM | GI50 [15] > 100 µM | GI50 [16] 28.2 µM | GI50 [17] 65.4 µM | GI50 [18] 41.3 µM | GI50 [55] 97.1 µM | GI50 [19] 40.5 µM | GI50 [20] 18 µM | GI50 [21] > 100 µM | GI50 [22] 98.3 µM | GI50 [23] 79.6 µM | GI50 [24] > 100 µM | GI50 [25] 24.2 µM | GI50 [26] 50 µM | GI50 [27] > 100 µM | GI50 [28] > 100 µM | GI50 [29] > 100 µM | GI50 [30] 27.1 µM | GI50 [31] 59.6 µM | GI50 [32] 53.5 µM | GI50 [33] 60 µM | GI50 [34] > 100 µM | GI50 [35] 82 µM | GI50 [36] 51.7 µM | GI50 [37] > 100 µM | GI50 [38] 57.4 µM | GI50 [58] 40.4 µM | GI50 [39] > 100 µM | GI50 [40] 30.4 µM | GI50 [42] > 100 µM | GI50 [43] 48.2 µM | GI50 [44] > 100 µM | GI50 [59] 46 µM | GI50 [45] 84.9 µM | GI50 [46] 39.2 µM | GI50 [47] 55.1 µM | GI50 [48] > 100 µM | GI50 [56] 33.5 µM | GI50 [49] 29.5 µM | GI50 [50] 14.7 µM | GI50 [51] 12.3 µM
> 100 µM: TGI [1] | TGI [57] | TGI [2] | TGI [3] | TGI [4] | TGI [5] | TGI [6] | TGI [7] | TGI [8] | TGI [9] | TGI [52] | TGI [10] | TGI [11] | TGI [53] | TGI [12] | TGI [13] | TGI [14] | TGI [54] | TGI [15] | TGI [16] | TGI [17] | TGI [18] | TGI [55] | TGI [19] | TGI [20] | TGI [21] | TGI [22] | TGI [23] | TGI [24] | TGI [25] | TGI [26] | TGI [27] | TGI [28] | TGI [29] | TGI [30] | TGI [31] | TGI [32] | TGI [33] | TGI [34] | TGI [35] | TGI [36] | TGI [37] | TGI [38] | TGI [58] | TGI [39] | TGI [40] | TGI [42] | TGI [43] | TGI [44] | TGI [59] | TGI [45] | TGI [46] | TGI [47] | TGI [48] | TGI [56] | TGI [49] | TGI [50] | TGI [51]

Cc1ccc(N=NN(C)C(=O)C(C)N)cc1 (centres undefined)
> 100 µM: TGI [1] | TGI [2] | TGI [3] | TGI [4] | TGI [5] | TGI [6] | TGI [7] | TGI [8] | TGI [9] | TGI [52] | TGI [11] | TGI [53] | TGI [12] | TGI [13] | TGI [14] | TGI [54] | TGI [15] | TGI [16] | TGI [17] | TGI [18] | TGI [55] | TGI [19] | TGI [20] | TGI [21] | TGI [22] | TGI [23] | TGI [24] | TGI [25] | TGI [26] | TGI [27] | TGI [28] | TGI [29] | TGI [30] | TGI [31] | TGI [32] | TGI [33] | TGI [36] | TGI [37] | TGI [38] | TGI [58] | TGI [39] | TGI [40] | TGI [41] | TGI [43] | TGI [44] | TGI [59] | TGI [45] | TGI [46] | TGI [47] | TGI [48] | TGI [56] | TGI [49] | TGI [50] | TGI [51]

Nc1nc2ccc(OCC(O)CN3CCCCC3)cc2[n+]([O-])n1 (centres undefined)
> 100 µM: TGI [1] | TGI [2] | TGI [3] | TGI [4] | TGI [5] | TGI [6] | TGI [8] | TGI [9] | TGI [52] | TGI [10] | TGI [11] | TGI [12] | TGI [13] | TGI [14] | TGI [54] | TGI [15] | TGI [17] | TGI [18] | TGI [55] | TGI [19] | TGI [20] | TGI [21] | TGI [22] | TGI [23] | TGI [24] | TGI [25] | TGI [26] | TGI [27] | TGI [28] | TGI [29] | TGI [30] | TGI [31] | TGI [32] | TGI [34] | TGI [35] | TGI [36] | TGI [37] | TGI [58] | TGI [39] | TGI [40] | TGI [41] | TGI [43] | TGI [44] | TGI [59] | TGI [47] | TGI [48] | TGI [56] | TGI [49] | TGI [50] | TGI [51]

NC(=O)C(=O)C(c1ccccc1)S(=O)(=O)Cc1ccccc1 (centres undefined)
> 100 µM: TGI [1] | TGI [2] | TGI [3] | TGI [4] | TGI [5] | TGI [6] | TGI [7] | TGI [8] | TGI [9] | TGI [10] | TGI [11] | TGI [53] | TGI [12] | TGI [13] | TGI [54] | TGI [15] | TGI [16] | TGI [17] | TGI [18] | TGI [55] | TGI [19] | TGI [20] | TGI [21] | TGI [22] | TGI [23] | TGI [24] | TGI [25] | TGI [26] | TGI [27] | TGI [28] | TGI [29] | TGI [30] | TGI [31] | TGI [32] | TGI [33] | TGI [35] | TGI [36] | TGI [37] | TGI [38] | TGI [58] | TGI [39] | TGI [40] | TGI [41] | TGI [42] | TGI [43] | TGI [44] | TGI [59] | TGI [45] | TGI [46] | TGI [47] | TGI [48] | TGI [56] | TGI [49] | TGI [50] | TGI [51]
